Data: article PMC6175941, “Hydrophobic alkyl chains substituted to the 8-position of cyclic nucleotides enhance activation of CNG and HCN channels by an intricate enthalpy - entropy compensation” (Scientific Reports, 2018)

How the values were obtained:
[1] = system: CNGA2:CNGA4:CNGB1b channels; set-up: method as in PMID 17665892; details: cited from earlier work
[2] = target: T1, homotetrameric HCN2 channels (Mus musculus, UniProt O88703); experiment: Concentration-activation relationship of homotetrameric HCN2 channels, inside-out patches of Xenopus oocytes; type: cell-based; details: for H (Hill coefficient) / EC50: homotetrameric HCN2 channels, mean; for EC50: pre-activation at -130 mV, instantaneous current at -100 mV
T1 construct: expressed in transfected cells; host or cells: Xenopus laevis oocytes injected with cRNA; inside-out patches
T1 sequence (O88703 1-863): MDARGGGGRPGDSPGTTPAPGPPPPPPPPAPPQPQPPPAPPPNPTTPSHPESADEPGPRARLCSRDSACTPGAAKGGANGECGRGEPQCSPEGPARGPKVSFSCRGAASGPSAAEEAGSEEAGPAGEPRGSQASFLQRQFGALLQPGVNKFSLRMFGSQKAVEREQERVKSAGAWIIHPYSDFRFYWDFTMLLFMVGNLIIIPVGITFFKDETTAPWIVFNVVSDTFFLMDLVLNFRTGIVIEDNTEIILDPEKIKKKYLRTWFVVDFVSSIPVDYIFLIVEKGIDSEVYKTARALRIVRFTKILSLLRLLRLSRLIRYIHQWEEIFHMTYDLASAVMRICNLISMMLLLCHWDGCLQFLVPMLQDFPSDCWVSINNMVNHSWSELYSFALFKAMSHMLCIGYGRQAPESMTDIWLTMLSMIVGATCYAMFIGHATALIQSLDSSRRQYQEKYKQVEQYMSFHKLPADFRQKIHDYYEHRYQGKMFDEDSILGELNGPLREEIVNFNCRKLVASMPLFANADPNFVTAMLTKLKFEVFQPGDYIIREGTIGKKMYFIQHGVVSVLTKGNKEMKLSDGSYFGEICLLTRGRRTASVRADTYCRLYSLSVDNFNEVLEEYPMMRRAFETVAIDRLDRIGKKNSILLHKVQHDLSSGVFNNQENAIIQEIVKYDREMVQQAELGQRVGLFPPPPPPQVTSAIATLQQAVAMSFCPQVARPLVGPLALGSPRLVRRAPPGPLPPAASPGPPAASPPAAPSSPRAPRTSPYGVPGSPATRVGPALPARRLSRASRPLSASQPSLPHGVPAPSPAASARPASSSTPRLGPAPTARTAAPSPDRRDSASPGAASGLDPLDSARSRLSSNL
Procedure: (§1) The subunits CNGA2 (accession No. AF126808), CNGA4 (accession No. U12623) and CNGB1b (accession No. AF068572) of rat olfactory channels as well as mouse HCN2 channels (NM008226) were subcloned in front of the T7 promoter of pGEMHEnew. The respective cRNAs were produced by using the mMESSAGE mMACHINE T7 Kit (Ambion, Austin, TX).
The oocytes were exposed to collagenase A (3 mg/ml; Roche, Grenzach-Wyhlen, Germany) for 105 min in Ca^2+-free Barth’s solution containing (in mM) 82.5 NaCl, 2 KCl, 1 MgCl2 2, and 5 Hepes, pH 7.4. Oocytes at stages IV and V were injected with 50–130 ng of cRNA encoding either CNGA2, CNGA2:CNGA4:CNGB1b (2:1:1 ratio) or HCN2 channels either manually of or by means of an injection robot (RoboInject®). The injected oocytes were incubated at 18 °C for up to 6 days in Barth’s solution containing (in mM) 84 NaCl, 1 KCl, 2.4 NaHCO3, 0.82 MgSO4, 0.41 CaCl2, 0.33 Ca(NO3)2, 7.5 TRIS, cefuroxime (4.0 µg × ml^−1), and penicillin/streptomycin (100 µg × ml^−1), pH 7.4.
(§2) Macroscopic currents were recorded from inside-out patches of the oocytes by using standard patch-clamp techniques. The patch pipettes were pulled from quartz tubing (P-2000, Sutter Instrument, Novato, USA) with an outer and inner diameter of 1.0 and 0.7 mm (VITROCOM, New Jersey, USA). The corresponding pipette resistance was 0.9–2.3 MΩ. The bath and pipette solution contained (in mM): 150 KCl, 1 EGTA, 5 Hepes (pH 7.4 with KOH) for CNG measurements. For HCN measurements the bath solution contained 100 mM KCl, 10 mM EGTA, 10 mM HEPES (pH 7.2) and 120 mM KCl, 10 mM HEPES, and 1.0 mM CaCl2 (pH 7.2) in the pipette. Recording was carried out at room temperature using an Axopatch 200B amplifier (Axon Instruments, Foster City, CA). Electrophysiology was controlled by the Patchmaster-software (HEKA Elektronik Dr. Schulze GmbH, Lambrecht, Germany). The sampling rate was 5 kHz and the filter implemented in the amplifier (4-pole Bessel) was set to 2 kHz. Measurements in HCN2 channels were generally started 3.5 min after patch excision to minimize channel run down during the measurement[14],[27],[70]. The solutions with the ligand concentrations to be tested were applied via a multi-barrel device to the patches with a flow rate of 0.8 to 1.2 ml/min.
(§3) I is the actual current amplitude and Imax the maximum current amplitude at a saturating cNMP concentration specified for each cNMP and channel. EC50 is the cNMP concentration generating the half maximum current and H the Hill coefficient.

[3] = target: T2, homotetrameric CNGA2 channels (Rattus norvegicus, UniProt Q00195); experiment: Concentration-activation relationship of homotetrameric CNGA2 channels, inside-out patches of Xenopus oocytes; type: cell-based
T2 construct: expressed in transfected cells; host or cells: Xenopus laevis oocytes injected with cRNA; inside-out patches
T2 sequence (Q00195 1-664): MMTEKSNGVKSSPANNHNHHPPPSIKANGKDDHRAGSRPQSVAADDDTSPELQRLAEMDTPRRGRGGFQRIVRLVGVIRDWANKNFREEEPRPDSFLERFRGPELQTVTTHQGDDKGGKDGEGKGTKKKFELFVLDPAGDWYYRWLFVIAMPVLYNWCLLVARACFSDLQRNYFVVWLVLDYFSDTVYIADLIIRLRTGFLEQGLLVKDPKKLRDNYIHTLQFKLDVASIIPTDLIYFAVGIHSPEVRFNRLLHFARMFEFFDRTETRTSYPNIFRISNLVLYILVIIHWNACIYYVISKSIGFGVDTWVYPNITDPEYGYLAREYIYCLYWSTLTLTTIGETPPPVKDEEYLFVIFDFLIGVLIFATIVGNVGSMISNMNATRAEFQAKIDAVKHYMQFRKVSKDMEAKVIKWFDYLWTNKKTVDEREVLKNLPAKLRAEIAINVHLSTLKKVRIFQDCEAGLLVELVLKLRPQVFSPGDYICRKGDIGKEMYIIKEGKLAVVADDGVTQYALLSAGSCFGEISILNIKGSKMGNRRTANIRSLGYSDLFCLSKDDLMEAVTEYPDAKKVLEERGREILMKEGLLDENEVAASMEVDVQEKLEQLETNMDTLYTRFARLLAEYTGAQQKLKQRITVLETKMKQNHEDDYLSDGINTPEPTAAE
Procedure: (§4) For each cNMP derivative a complete concentration-activation relationship was recorded, and the data points were fitted with the Hill equation (equation 1) yielding the concentration of half maximum activation (EC50) and the Hill coefficient H (Fig. 1b,c).
as §1
(§5) Oocytes at stages IV and V were injected with 50–130 ng of cRNA encoding either CNGA2, CNGA2:CNGA4:CNGB1b (2:1:1 ratio) or HCN2 channels either manually of or by means of an injection robot (RoboInject®). The injected oocytes were incubated at 18 °C for up to 6 days in Barth’s solution containing (in mM) 84 NaCl, 1 KCl, 2.4 NaHCO3, 0.82 MgSO4, 0.41 CaCl2, 0.33 Ca(NO3)2, 7.5 TRIS, cefuroxime (4.0 µg × ml^−1), and penicillin/streptomycin (100 µg × ml^−1), pH 7.4.
as §2, §3

[4] = target: T3, heterotetrameric CNGA2:CNGA4:CNGB1b channels (Rattus norvegicus, UniProt A0A8I5ZN27+Q00195+Q64359); experiment: Concentration-activation relationship of heterotetrameric CNGA2:CNGA4:CNGB1b channels, inside-out patches of Xenopus oocytes; type: cell-based; details: heterotetrameric CNGA2:CNGA4:CNGB1b channels, mean; for EC50: late current at +10 mV
T3 construct: expressed in transfected cells; host or cells: Xenopus laevis oocytes co-injected with cRNAs (2:1:1); inside-out patches
T3 sequence (Q64359 whole entry, one chain of several): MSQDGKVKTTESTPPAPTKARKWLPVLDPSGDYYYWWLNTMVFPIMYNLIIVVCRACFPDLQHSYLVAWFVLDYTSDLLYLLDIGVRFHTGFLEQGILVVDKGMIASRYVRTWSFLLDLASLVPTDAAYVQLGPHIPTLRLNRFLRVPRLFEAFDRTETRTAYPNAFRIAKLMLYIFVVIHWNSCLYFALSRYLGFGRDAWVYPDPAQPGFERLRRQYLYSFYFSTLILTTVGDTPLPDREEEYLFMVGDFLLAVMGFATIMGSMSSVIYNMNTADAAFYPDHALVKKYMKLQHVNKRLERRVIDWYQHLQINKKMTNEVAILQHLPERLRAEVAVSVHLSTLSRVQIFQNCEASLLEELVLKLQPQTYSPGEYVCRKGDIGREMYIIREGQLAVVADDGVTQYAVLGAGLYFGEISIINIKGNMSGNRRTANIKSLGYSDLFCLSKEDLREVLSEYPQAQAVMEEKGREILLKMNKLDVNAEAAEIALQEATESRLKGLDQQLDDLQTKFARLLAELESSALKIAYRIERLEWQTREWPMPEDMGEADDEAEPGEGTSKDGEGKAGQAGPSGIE
T3 sequence (A0A8I5ZN27 1-858 isoform A0A8I5ZN27-2, one chain of several): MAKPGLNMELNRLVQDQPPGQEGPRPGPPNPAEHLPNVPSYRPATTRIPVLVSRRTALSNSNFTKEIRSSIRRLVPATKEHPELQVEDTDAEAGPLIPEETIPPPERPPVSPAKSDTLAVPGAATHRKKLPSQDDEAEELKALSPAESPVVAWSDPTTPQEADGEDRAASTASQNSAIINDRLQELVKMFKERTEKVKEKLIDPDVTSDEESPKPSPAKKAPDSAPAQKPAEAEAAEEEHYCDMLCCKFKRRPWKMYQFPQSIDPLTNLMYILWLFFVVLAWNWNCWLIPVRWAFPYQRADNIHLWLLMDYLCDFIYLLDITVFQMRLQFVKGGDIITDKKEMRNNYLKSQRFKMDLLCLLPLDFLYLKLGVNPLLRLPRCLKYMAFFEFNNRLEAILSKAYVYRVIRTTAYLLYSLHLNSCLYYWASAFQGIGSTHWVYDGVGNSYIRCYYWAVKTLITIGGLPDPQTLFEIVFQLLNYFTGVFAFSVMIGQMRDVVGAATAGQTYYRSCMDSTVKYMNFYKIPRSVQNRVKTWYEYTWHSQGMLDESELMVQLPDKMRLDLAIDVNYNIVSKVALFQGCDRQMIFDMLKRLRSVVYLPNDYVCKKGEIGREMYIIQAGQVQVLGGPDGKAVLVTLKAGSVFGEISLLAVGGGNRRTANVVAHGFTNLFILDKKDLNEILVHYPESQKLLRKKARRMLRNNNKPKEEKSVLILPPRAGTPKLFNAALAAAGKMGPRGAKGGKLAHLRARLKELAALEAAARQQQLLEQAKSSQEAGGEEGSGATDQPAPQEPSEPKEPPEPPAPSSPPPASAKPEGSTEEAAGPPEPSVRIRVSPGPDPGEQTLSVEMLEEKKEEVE
Procedure: as §4, §1, §5, §2, §3

[5] = target: T4, CNGA2 channels (Rattus norvegicus, UniProt Q00195); experiment: Activation and deactivation kinetics by concentration jumps, CNGA2 channels; type: cell-based
T4 construct: expressed in transfected cells; host or cells: Xenopus laevis oocytes injected with cRNA; inside-out patches
T4 sequence (Q00195 1-664): T2 sequence (Q00195 1-664)
From the text: (§6) We applied concentration jumps from zero to a defined level and back to zero, yielding the time constants τa and τd, respectively (c.f. Methods section). If the enhancement of the apparent affinity is caused by solely accelerating the binding rate, τa would be decreased and τd would be unaffected. Conversely, if the hydrophobic alkyl chain enhances the apparent affinity by solely decelerating the unbinding rate, τd would be increased and τa could be increased preferentially at lower concentrations.
(§7) In experiments designed to record activation and deactivation kinetics in CNG channels, theta-glass pipettes were used in which one barrel contained control solution and the other barrel the test solution supplemented with the ligand. The theta-glass pipette was mounted on a piezo actuator which was controlled by the computer controlling the voltage protocols. The effective switch time of the solution exchange, t10–90, determined by an open patch pipette and different solutions in the barrels, was negligible compared to the time courses of activation and deactivation to be considered. […]
(§8) The speed of activation and deactivation was determined by fitting the respective time courses with single exponentials yielding the time constant τ. […] To quantify the time course at a given cNMP concentration for a number of measurements τwm and τ were treated equally. […]

[6] = target: T5, CNGA2:CNGA4:CNGB1b channels (Rattus norvegicus, UniProt A0A8I5ZN27+Q00195+Q64359); experiment: Activation and deactivation kinetics by concentration jumps, CNGA2:CNGA4:CNGB1b channels; type: cell-based
T5 construct: expressed in transfected cells; host or cells: Xenopus laevis oocytes co-injected with cRNAs (2:1:1); inside-out patches
T5 sequence (Q64359 whole entry, one chain of several): as the sequence (Q64359 whole entry, one chain of several) above
T5 sequence (A0A8I5ZN27 1-858 isoform A0A8I5ZN27-2, one chain of several): as the sequence (A0A8I5ZN27 1-858 isoform A0A8I5ZN27-2, one chain of several) above
From the text: as §6, §7, §8

[7] = CNGA2 channels, numeric mean values of box plots (Fig. 2a,b, Fig. 3) and text
[8] = homotetrameric CNGA2 channels, mean
[9] = homotetrameric CNGA2 channels, late current at +10 mV, mean

Row | Compound | EC50 [1] | H ([2]; individual experiment, Fig. 5b, HCN2 channels) | EC50 [3, 7] | H (Hill coefficient) [3, 8] | EC50 [4] | H (Hill coefficient) [4] | H (Hill coefficient) [2] | EC50 [2] | EC50 [3, 9] | deactivation time constant τd compared to cGMP (1G) ([5]; all tested concentrations) | activation time constant τa compared to cGMP (1G) ([5]; at concentrations lower than 1 µM) | deactivation compared to the effect with CNGA2 channels ([6]; 10 µM) | activation time constant τa ([6]; low concentrations)
1 | Nc1nc2c(nc(Sc3ccc(Cl)cc3)n2C2O[C@@H]3COP(=O)(O)O[C@H]3[C@H]2O)c(=O)[nH]1 (stereo in doubt) [8-pCPT-cGMP] | 73 nM | – | – | – | – | – | – | – | – | – | – | – | –
2 | Nc1ncnc2c1ncn2C1OC2COP(=O)(O)OC2C1O (centres unmarked) [1A, cAMP, reference compound] | – | 1.28 | – | – | – | – | – | – | – | – | – | – | –
3 | CC(=O)NCCSc1nc2c(N)ncnc2n1C1OC2COP(=O)(O)OC2C1O (centres unmarked) [3A, 8-(Ac)AET-cAMP] | – | – | 9900 nM | 2.3 | 4100 nM | 1.8 | 1.7 | 70.6 nM | – | – | – | – | –
4 | CC(=O)NCCCCCCSc1nc2c(N)ncnc2n1C1OC2COP(=O)(O)OC2C1O (centres unmarked) [5A, 8-(Ac)AHT-cAMP] | – | – | – | 3.1 | 950 nM | 2.5 | 0.8 | 19.7 nM | 1400 nM | – | – | – | –
5 | CC(=O)NCCCCCCSc1nc2c(=O)[nH]c(N)nc2n1C1OC2COP(=O)(O)OC2C1O (centres unmarked) [5G, 8-(Ac)AHT-cGMP] | – | – | – | 2.7 | 230 nM | 2.0 | – | – | 80 nM | approximately an order of magnitude increased | larger | slowed to a much lower degree | not affected
6 | CC(=O)NCCCCCCCCCCSc1nc2c(N)ncnc2n1C1OC2COP(=O)(O)OC2C1O (centres unmarked) [7A, 8-(Ac)ADT-cAMP] | – | – | – | 2.4 | 470 nM | 2.7 | 1.5 | 14.6 nM | 2300 nM | – | – | – | –
7 | CC(=O)NCCOCCOCCSc1nc2c(N)ncnc2n1C1OC2COP(=O)(O)OC2C1O (centres unmarked) [8A, 8-(Ac)APT-cAMP] | – | – | – | 2.4 | 6000 nM | 2.2 | 0.9 | 144 nM | 24900 nM | – | – | – | –
8 | CC(=O)NCC(=O)NCCSc1nc2c(N)ncnc2n1C1OC2COP(=O)(O)OC2C1O (centres unmarked) [10A, 8-(Ac)AGET-cAMP] | – | – | 34300 nM | 2.1 | 6600 nM | 2.2 | 1.5 | 96.7 nM | 34200 nM | – | – | – | –
